Measured values taken from US6310090A, “Process and product for enhancing immune response in companion animals using a combination of antioxidants” (priority 2000, dated 2001).

Key:
CD5+ total T cells = test: lymphocyte subsets by flow cytometry, lutein supplementation; format: cell-based, dog (Beagle); conditions: weeks 4 and 8, dogs fed lutein
Protocol: (§3) Fifty six female Beagle dogs (17 to 18 months old; average body weight 11.4±0.4 kg) were randomly assigned to be supplemented daily with 0, 5, 10 or 20 mg lutein for 17 weeks. The lutein contained 76.66% lutein and 5.23% zeaxanthin. The lutein supplement was resuspended in soybean oil to the appropriate concentration and 1 mL administered perorally at 0800 h daily. Food (200 g/dog/d) was offered immediately after the lutein supplementation. […] All dogs were housed in 2×2 m pens (2 dogs/pen) in a temperature (20 to 22° C.) and light (14 h light) controlled facility. Body weight was recorded at weeks 0, 6, and 12.
(§4) Blood was collected by jugular venipuncture into heparinized evacuated tubes on weeks 0, 2, 4, 8 and 12 and aliquots used for HPLC analysis and for assessing immune responses.
(§5) Blood leukocytes were separated using Histopaque-1119 (Sigma, St. Louis, Mo.). Cells were washed three times with phosphate-buffered saline (PBS, pH 7.4) and contaminating erythrocytes were lysed in NH4 CI (8.4 g/L). Lymphocyte subsets were determined by flow cytometry (FACScan, Becton Dickinson, San Jose, Calif.). […]
(§6) Appropriate negative controls were included to correct for background fluorescence. Data were expressed as the percentage of positive-staining cells corrected for cells stained nonspecifically with the secondary antibody.

[1] = tested on: MHC class II expressing lymphocytes; test: as above; format: cell-based, dog (Beagle); conditions: 20 mg lutein, week 8 and 12
Protocol: as §3, §4, §5, §6

[2] = tested on: polyvalent vaccine (specific antigen); test: delayed type hypersensitivity response to vaccine / vaccine recognition, lutein supplementation; format: in vivo, dog (Beagle)
Protocol: (§1) Skin induration response was assessed in all dogs on weeks 0, 6, and 12. Dogs were injected intradermally in the flank area with saline (8.5 g/L; control), an attenuated polyvalent vaccine containing canine distemper virus, canine adenovirus type-2, canine parainfluenza virus and parvovirus (Vanguard 5, Smithkline Beacham, West Chester, Pa.; specific antigen), and PHA (0.5 g/L; nonspecific antigen). The doses of vaccine and PHA used were previously determined to provide optimal skin response in Beagle dogs of similar age. The injection site was clipped and wiped with 70% ethyl alcohol. The injection volume was 100 μL. Skin induration was measured at 0, 24, 48 and 72 h post-injection with the aid of a pressure-sensitive digital micrometer (Mitsutoyo, Tokyo, Japan) and response was expressed as a percentage of skin thickness measured at 0 h.

CD21+ B cells = test: lymphocyte subsets by flow cytometry, lutein supplementation; format: cell-based, dog (Beagle); conditions: dietary lutein
Protocol: as §3, §4, §5, §6

IL-2 = IL-2 production by PHA-stimulated PBMC in whole blood cultures, lutein supplementation; format: cell-based, dog (canine)
Protocol: Whole blood was diluted 1:2 with RPMI-1640 supplemented with Hepes and antibiotics (described earlier) and 400 μL of diluted blood were pipetted into 48-well plates (Costar, Cambridge, Mass.). Cells were stimulated with PHA (400 μL of a 5 μg/mL solution) for 48 hours at […] in a 5% CO2 atmosphere. The plates were centrifuged at 200×g for 10 minutes and the supernatant was frozen at -80° C. The IL-2 content of the culture supernatant was determined in triplicate by ELISA (Intergen, Purchase, N.Y.). The polyclonal anti-human IL-2 cross-reacted with canine IL-2 and recombinant human IL-2 was used as the standard.

[3] = tested on: canine thyroid adenocarcinoma cells
Protocol: Fifty six female Beagle dogs (17 to 18 months old; average body weight 11.4±0.4 kg) were randomly assigned to be supplemented daily with 0, 5, 10 or 20 mg lutein for 17 weeks. The lutein contained 76.66% lutein and 5.23% zeaxanthin. The lutein supplement was resuspended in soybean oil to the appropriate concentration and 1 mL administered perorally at 0800 h daily. Food (200 g/dog/d) was offered immediately after the lutein supplementation. The basal diet met or exceeded the requirements for all essential nutrients (NRC 1985). All dogs were housed in 2×2 m pens (2 dogs/pen) in a temperature (20 to 22° C.) and light (14 h light) controlled facility. Body weight was recorded at weeks 0, 6, and 12.
as §4
Canine thyroid adenocarcinoma cells were used as target cells in assessing NK cell cytotoxic activity. […] Target cells were cultured in a T75 flask with 20 mL minimum essential medium (MEM; Sigma Chem. Co., St. Louis, Mo.) supplemented with 10% fetal calf serum (FC S), 100 U/mL of penicillin and 100 μg/mL of streptomycin. […] Optical density was measured at 570 nm using a microplate reader. The percentage of NK cell-specific lysis was calculated as follows: […]

[4] = tested on: PHA (nonspecific antigen); test: delayed type hypersensitivity response (skin induration) to PHA, lutein supplementation; format: in vivo, dog (Beagle)
Protocol: as §1

[5] = tested on: plasma lipid peroxidation (malondialdehyde); test: plasma lipid peroxidation (TBARS) assay, lutein supplementation; format: in vivo, dog (Beagle)
Protocol: Plasma lipid peroxidation activity was determined by measuring malondialdehyde (MDA) production. The standard used was 1,1,3,3-tetramethoxypropane JMP) (Sigma Chem. Co., St. Louis, Mo.). Duplicate 500 μL plasma samples were pipetted into 15 ml, glass tubes and 3 mL of 10 g/L phosphoric acid and 1 ml of 6 g/L TBA solution were added. The mixture was boiled in a water bath for 45 minutes. Tubes were allowed to cool and the TBA-MDA complex was extracted with 4 ml of n-butanol. The butanol layer was separated by centrifugation at 1,000×g for 10 minutes and absorbance was measured on at 532 nm (Beckman, Fullerton, Calif.). The TBARS activity was expressed in nmole MDA/L plasma.

[6] = tested on: CD8+ T-cytotoxic/suppressor cells; conditions: week 12
Protocol: as §3, §4, §5, §6

mouse splenocytes = conditions: dietary lutein; cited from earlier work
CD4+ T-helper cells = test: lymphocyte subsets by flow cytometry, lutein supplementation; format: cell-based, dog (Beagle); conditions: 5 and 10 mg lutein, week 12
Protocol: as §3, §4, §5, §6

IgG = IgG by single radial immunodiffusion, lutein supplementation; format: in vivo, dog (canine)
Protocol: (§2) Serum collected on weeks 0, 2, 4, 8 and 12 were analyzed for IgG and IgM concentrations by single radial immunodiffusion (SRID). In addition, all dogs were vaccinated with the polyvalent vaccine (Vanguard 5, Smithkline Beacham, West Chester, Pa.) on week 13 and again on week 15 to study the possible anamnestic effect of dietary lutein. Blood was collected weekly from week 13 through week 17. Goat antiserum to canine IgG (10%, whole molecule) or IgM (7.5%, μ chain specific) (ICN, Aurora, Ohio) was mixed with melted agarose (10 g/L in PBS; Sigma Chem. Co., St. Louis, Mo.) and the mixture solidified in SRID plates. Duplicate 5 μL volumes of serum or IgG (0, 2.88, 5.75, 11.5 and 23.0 mg/ml) or IgM (0, 0.25, 0.5, 1.0 and 2.0 mg/ml) standard were loaded into the wells. After incubating for 24 hours at room temperature in a humidified chamber, ring diameters were measured using a SRID reader (Transidyne General Corp., Ann Arbor, Minn.).

IgM = IgM by single radial immunodiffusion, lutein supplementation; format: in vivo, dog (canine); conditions: after revaccination on week 15
Protocol: as §2

[7] = tested on: peripheral blood mononuclear cells (PBMC); test: mitogen-induced PBMC proliferation, lutein supplementation; format: cell-based, dog (Beagle)
Protocol: Blood collected on weeks 0, 2, 4, 8 and 12 were used to assess mitogen-induced lymphocyte proliferation by peripheral blood mononuclear cells (PBMC). Whole blood culture was used in order to mimic in vivo conditions. Mitogens used were phytohemagglutinin (PHA), concanavalin A (Con A) and pokeweed mitogen (PWM). Whole blood was thoroughly mixed and then diluted 1:12 with RPMI-1640 containing 25 mM of Hepes, penicillin (100 U/mL) and streptomycin (100 μg/mL) (Sigma, St. Louis, Mo.). […] Triplicate 150 μL volumes were pipetted into 96-well round bottom plates and 50 μl of the appropriate mitogens added. The final concentrations of the mitogens in culture were 2 and 10 μg/mL for PHA, 1 and 5 μg/mL for Con A and 0.5 and 2.5 μg/mL for PWM. The two mitogen concentrations gave maximum (the higher mitogen concentration) and suboptimal (lower mitogen concentration) proliferative responses in preliminary studies using blood from similar animals. The mixture was incubated for 72 h at 37° C. in a humidified incubator under a 5% CO2 atmosphere. Four hours prior to the termination of the incubation period, 20 μL of [^3 H]-thymidine (1 [μCi/well) were added. Cells were harvested onto fiberglass filters and radioactivity was counted by liquid scintillation. Proliferation response of PBMC was expressed as stimulation index (cpm of stimulated cultures/cpm of unstimulated cultures).

immune system = test: summary of the results from each of the studies (Table 1); format: in vivo, dog
[8] = averaged across all treatments and all periods

## CC1=C[C@H](O)CC(C)(C)[C@H]1/C=C/C(C)=C/C=C/C(C)=C/C=C/C=C(C)/C=C/C=C(C)/C=C/C1=C(C)C[C@@H](O)CC1(C)C [lutein]
CD5+ total T cells
  percentages of CD5+ cells vs unsupplemented controls: generally had higher percentages
[1]
  % MHC class II cell populations vs unsupplemented dogs: elevated
[2]; FIG. 2, addition of lutein to the diet
  improvement of vaccine recognition: ≤ 32%
[2]; week 6, 48 and 72 h post-injection
  DTH response to vaccine: dose-related
[2]; week 6, 24 h
  DTH response to vaccine: not significant
[2]; week 12
  DTH response to vaccine: no significant dietary effect
CD21+ B cells
  CD21+ B cell population: did not significantly influence
IL-2; averaged throughout the study, all treatments
  concentrations of IL-2 in culture medium: 15.7 ± 0.4 ng/mL
IL-2; throughout the experimental period
  production of IL-2 by PHA-stimulated PBMC: did not differ significantly
[3]
  NK cell cytotoxic activity: did not significantly influence
[3]; averaged across all treatments and sampling periods, E:T 10:1
  specific lysis of target cells by PBMC: 49.1±1.1%
[4]; week 6, 48 and 72 h
  DTH response to PHA, treatment difference: no significant treatment difference
[4]; week 6, 24 h post-injection
  DTH response to PHA: dose-related DTH response
[4]; week 12, 20 mg lutein
  DTH response to PHA vs unsupplemented dogs: significantly higher
[4]; week 12, 24, 48 and 72 h
  DTH response to PHA: general dose-dependent increase
[5]; averaged across all treatments and periods
  plasma TBARS activity: 95.8±0.1 nmol MDA/L
[5]; lutein supplementation
  effect on plasma TBARS activity: did not significantly affect
[6]
  CD8+ population: not influenced by the diet
Mouse splenocytes
  lymphocyte proliferation in mouse splenocytes: enhance lymphocyte proliferation
CD4+ T-helper cells
  % CD4+ cells: higher
IgG; 5 mg lutein, week 16, after revaccination on week 15, P<0.05
  plasma IgG: higher
IgG; 20 mg lutein, week 17, after revaccination on week 15
  plasma IgG: higher
[8]
  plasma retinol concentration: 3.63 ± 0.14 µmol/L
  plasma α-tocopherol concentration: 37 ± 2 µmol/L
dog, in vivo
  plasma lutein+zeaxanthin vs unsupplemented animals: significantly higher
Lutein supplementation
  influence on plasma retinol and α-tocopherol: did not influence
IgM
  concentration of plasma IgM: not changed
[7]; 10 mg lutein, week 8
  PWM-stimulated PBMC proliferative response: higher proliferative response
[7]; 10 mg lutein, weeks 8 and 12, 5 μg/mL Con A
  Con A-stimulated PBMC proliferation: higher PBMC proliferation
[7]; 20 mg lutein, week 8 and 12, both concentrations of PWM
  PWM-stimulated PBMC proliferation vs unsupplemented controls: significantly higher PBMC proliferation
[7]; 20 mg lutein, weeks 8 (10 pg/mL PHA) and 12 (2 and 10 μg/mL PHA), P<0.01
  PHA-stimulated PBMC proliferative response vs unsupplemented dogs: enhanced
[7]; 20 mg lutein, weeks 8 and 12, both concentrations of Con A
  Con A-stimulated PBMC proliferation: higher PBMC proliferation
[7]; 5 and 10 mg lutein, week 8, 10 μg/ml PHA
  PHA-stimulated PBMC proliferation: higher PBMC proliferation
[7]; no mitogen
  spontaneous proliferation by unstimulated PBMC: did not significantly influence
[7]; weeks 0 and 4
  PHA-stimulated PBMC response: no significant effect
  PWM-stimulated PBMC proliferation, treatment difference: no significant treatment difference
Immune system; Table 1
  Optimize vaccine recognition by the dog: .check mark.
Immune system; Table 1, Lutein column
  Optimize immune cell activity (B-cells): .check mark.
